The values that follow come from patent US8114410B2, “Composition and methods for the inhibition of membrane fusion by paramyxoviruses” (priority 2001, dated 2012).

The subject of assay [1] is HeV-mediated fusion (HeLa cells expressing HeV F and G, U373 target cells).
The test system of assay [2] is NiV-mediated fusion (HeLa cells expressing NiV F and G, U373 target cells).
In assay [3] the test system is live NiV. Particulars: 56 μM.

Turning to “KPYTQSDVSMISLQSQKSINSLPSQIKDYVQKTVILAEDNP [ScHeV FC2, reference compound]”, the “Inhibition of HeV-mediated fusion (in words)” value in assay [1] is given as “no inhibitory effect”. In assay [2], the “Inhibition of NiV-mediated fusion (in words)” value is recorded as “no inhibitory effect”.

Consider `CC[C@H](C)[C@H](NC(=O)[C@H](CCCCN)NC(=O)[C@H](CCC(N)=O)NC(=O)[C@H](C)NC(=O)[C@H](CCC(=O)O)NC(=O)[C@H](CCCCN)NC(=O)[C@@H](NC(=O)[C@H](Cc1ccc(O)cc1)NC(=O)[C@H](CC(=O)O)NC(=O)[C@H](CCCCN)NC(=O)[C@H](CO)NC(=O)[C@H](CCC(N)=O)NC(=O)[C@H](CCC(N)=O)NC(=O)[C@H](CC(C)C)NC(=O)[C@H](CO)NC(=O)[C@H](CCC(N)=O)NC(=O)[C@H](CC(N)=O)NC(=O)[C@H](CCSC)NC(=O)[C@H](CO)NC(=O)[C@H](CO)NC(=O)[C@@H](NC(=O)[C@H](CCC(N)=O)NC(=O)[C@H](CO)NC(=O)[C@H](CO)NC(=O)[C@@H](NC(=O)[C@H](CC(=O)O)NC(=O)[C@@H](NC(=O)[C@H](CCCCN)NC(=O)[C@H](CC(=O)O)NC(=O)[C@@H](NC(=O)[C@H](Cc1ccc(O)cc1)NC(=O)[C@@H](NC(=O)[C@@H]1CCCN1C(=O)[C@@H]1CCCN1)C(C)C)[C@@H](C)O)C(C)C)[C@@H](C)CC)[C@@H](C)CC)[C@@H](C)CC)C(=O)N[C@@H](CC(C)C)C(=O)N[C@@H](CC(=O)O)C(=O)N[C@H](C(=O)N[C@H](C(=O)N[C@@H](CC(N)=O)C(=O)N1CCC[C@H]1C(=O)N[C@@H](CO)C(=O)N[C@@H](CC(C)C)C(=O)O)C(C)C)[C@@H](C)O` [HeV FC2], for which, in assay [1], the 50% inhibitory concentration (IC50) is 5.2 to 5.8 nM and the “Inhibition of HeV-mediated fusion (in words)” value is given as “completely inhibitory in the nM range”. Also, in assay [2], the 50% inhibitory concentration (IC50) fell in the range of 5.2 to 5.8 nM and the “Inhibition of NiV-mediated fusion (in words)” value was “completely inhibitory in the nM range”.

In the case of `CC[C@H](C)[C@H](NC(=O)[C@H](CCCCN)NC(=O)[C@H](CCC(N)=O)NC(=O)[C@H](C)NC(=O)[C@H](CCC(=O)O)NC(=O)[C@H](CCCCN)NC(=O)[C@@H](NC(=O)[C@H](Cc1ccc(O)cc1)NC(=O)[C@H](CC(=O)O)NC(=O)[C@H](CCCCN)NC(=O)[C@H](CO)NC(=O)[C@H](CCC(N)=O)NC(=O)[C@H](CCC(N)=O)NC(=O)[C@H](CC(C)C)NC(=O)[C@H](CO)NC(=O)[C@H](CCC(N)=O)NC(=O)[C@H](CC(N)=O)NC(=O)[C@H](CCSC)NC(=O)[C@H](CO)NC(=O)[C@H](CO)NC(=O)[C@@H](NC(=O)[C@H](CCC(N)=O)NC(=O)[C@H](CO)NC(=O)[C@H](CO)NC(=O)[C@@H](NC(=O)[C@H](CC(=O)O)NC(=O)[C@@H](NC(=O)[C@H](CCCCN)NC(=O)[C@H](CC(=O)O)NC(=O)[C@@H](NC(=O)[C@H](Cc1ccc(O)cc1)NC(=O)[C@@H](NC(=O)[C@@H]1CCCN1C(=O)[C@@H]1CCCN1)C(C)C)[C@@H](C)O)C(C)C)[C@@H](C)CC)[C@@H](C)CC)[C@@H](C)CC)C(=O)N[C@@H](CC(C)C)C(=O)N[C@@H](CC(=O)O)C(=O)N[C@H](C(=O)N[C@H](C(=O)N[C@@H](CC(N)=O)C(=O)N1CCC[C@H]1C(=O)N[C@@H](CO)C(=O)N[C@@H](CC(C)C)C(=O)O)C(C)C)[C@@H](C)O` [FC1], the “% Inhibition of focus formation” value in assay [3] is listed as 91.8%. The “Inhibition of HeV-mediated fusion (in words)” value in assay [1] is given as “completely inhibit HeV-mediated fusion in the nM range”. The “Inhibition of NiV-mediated fusion (in words)” value in assay [2] was “capable of inhibiting recombinant NiV-mediated fusion at slightly lower efficiencies”.

Usually IC50 stands for the concentration that gives 50% inhibition. Low values mean inhibition by little substance, high ones a need for much substance.
